# Source: patent publication US8466176B2 (priority 2008, dated 2013)
# Experiment: logP(HCOOH) reported with HPLC/MS
# Conditions: HCOOH (formic acid), logP(HCOOH), HPLC/MS
row,SMILES,chromatographic logP
1,"Cn1nnnc1C(=NOCc1cccc(C=NO)n1)c1ccccc1 [Example 177, N-({6-[(hydroxyimino)methyl]pyridin-2-yl}methoxy)-1-(1-methyl-1H-tetrazol-5-yl)-1-phenylmethanimine]",2.16

# Same assay, conditions: HPLC, logP(HCOOH), HPLC/MS
row,SMILES,chromatographic logP
1,"Cc1sc(Br)nc1CON=C(c1ccccc1)c1nnnn1C [Example 175, N-[(2-bromo-5-methyl-1,3-thiazol-4-yl)methoxy]-1-(1-methyl-1H-tetrazol-5-yl)-1-phenylmethanimine]",3.37

# Same assay, conditions: method [a]: HPLC on reversed phase columns, pH 2.3 with 0.1% phosphoric acid and acetonitrile as eluent
row,SMILES,log p
1,Cn1nnnc1C(=NOCc1cccc(C(O)CCc2ccccc2)n1)c1ccccc1 (stereo not shown) [Example 176],3.35^[a]
2,Cn1nnnc1C(=NOCc1cccc(NCC2CCC2)n1)c1ccccc1 [Example 178],1.98^[a]
3,Cn1nnnc1C(=NOCc1cccc(NCC2CC2(F)F)n1)c1ccccc1 (stereo not shown) [Example 179],2.17^[a]
4,Cn1nnnc1C(=NOCc1cccc(NCCCCC2CCCCC2)n1)c1ccccc1 [Example 180],3.55^[a]
5,CCOCCOCCNc1cccc(CON=C(c2ccccc2)c2nnnn2C)n1 [Example 197],1.7^[a]
6,Cn1nnnc1C(=NOCc1cccc(NCCCC2CCCCC2)n1)c1ccccc1 [Example 200],3.17^[a]
7,Cn1nnnc1C(=NOCc1cccc(C=NN=CC2CC=CCC2)n1)c1ccccc1 (stereo not shown) [Example 201],4.16^[a]

# Same assay, conditions: method [b]: LC-MS, pH 2.7 with 0.1% formic acid in water and acetonitrile (0.1% formic acid), linear gradient 10% to 95% acetonitrile
row,SMILES,log p
1,CCCC#Cc1nc(CON=C(c2ccccc2)c2nnnn2C)c(C)s1 [Example 182],4.24^[b]
2,CCCCC#Cc1nc(CON=C(c2ccccc2)c2nnnn2C)c(C)s1 [Example 183],3.37^[b]
3,Cc1sc(C#CCC2CCCCC2)nc1CON=C(c1ccccc1)c1nnnn1C [Example 184],5.62^[b]
4,Cc1sc(C#CCC2CCCC2)nc1CON=C(c1ccccc1)c1nnnn1C [Example 185],5.2^[b]
5,Cc1sc(C#CCCc2ccccc2)nc1CON=C(c1ccccc1)c1nnnn1C [Example 187],4.65^[b]
6,CCCC(C)C#Cc1nc(CON=C(c2ccccc2)c2nnnn2C)c(C)s1 (stereo not shown) [Example 188],5.06^[b]
7,Cc1sc(C#CC(C)C)nc1CON=C(c1ccccc1)c1nnnn1C [Example 189],4.21^[b]
8,Cc1sc(C#CC2CCCC2)nc1CON=C(c1ccccc1)c1nnnn1C [Example 190],4.75^[b]
9,Cn1nnnc1C(=NOCc1csc(C#Cc2ccc(C#N)cc2)n1)c1ccccc1 [Example 191],3.76^[b]
10,COc1ccc(C#Cc2nc(CON=C(c3ccccc3)c3nnnn3C)cs2)cc1 [Example 192],4.14^[b]
11,Cn1nnnc1C(=NOCc1csc(C#CCCCCl)n1)c1ccccc1 [Example 193],3.8^[b]
12,Cn1nnnc1C(=NOCc1csc(C#Cc2ccc3ccccc3c2)n1)c1ccccc1 [Example 194],4.92^[b]
13,COC(=O)CCCC#Cc1nc(CON=C(c2ccccc2)c2nnnn2C)cs1 [Example 195],3.33^[b]
14,COC(C)(C)C#Cc1nc(CON=C(c2ccccc2)c2nnnn2C)cs1 [Example 196],3.53^[b]
15,Cn1nnnc1C(=NOCc1csc(C#CCCO)n1)c1ccccc1 [Example 198],2.3^[b]
16,CCSCC#Cc1nc(CON=C(c2ccccc2)c2nnnn2C)cs1 [Example 199],3.78^[b]
17,CCCCc1ccc(C#Cc2nc(CON=C(c3ccccc3)c3nnnn3C)cs2)cc1 [Example 202],5.82^[b]
18,Cn1nnnc1C(=NOCc1cccc(NCCOC2CCCCC2)n1)c1ccccc1 [Example 203],2.35^[b]
19,Cn1nnnc1C(=NOCc1cccc(NCCOC2CCCC2)n1)c1ccccc1 [Example 204],2.14^[b]
20,Cn1nnnc1C(=NOCc1cccc(NCC2CC2(Cl)Cl)n1)c1ccccc1 (stereo not shown) [Example 205],2.75^[b]
21,Cn1nnnc1C(=NOCc1cccc(C#Cc2cccs2)n1)c1ccccc1 [Example 206],3.94^[b]
22,Cn1nnnc1C(=NOCc1cccc(C#Cc2ccsc2)n1)c1ccccc1 [Example 207],3.83^[b]
23,Cn1nnnc1C(=NOCc1cccc(C#Cc2ccc3ccccc3c2)n1)c1ccccc1 [Example 208],4.78^[b]

row,SMILES,log p
1,Cn1nnnc1C(=NOCc1cccc(C#CCCC#N)n1)c1ccccc1 [Example 209],2.7^[b]
2,Cn1nnnc1C(=NOCc1cccc(C#CCCc2ccccc2)n1)c1ccccc1 [Example 210],4.29^[b]
3,Cn1nnnc1C(=NOCc1cccc(C#CCCCCCl)n1)c1ccccc1 [Example 211],3.99^[b]
4,Cn1nnnc1C(=NOCc1cccc(C#CCCCCl)n1)c1ccccc1 [Example 212],3.71^[b]
5,Cn1nnnc1C(=NOCc1cccc(C#CCC2CCCCC2)n1)c1ccccc1 [Example 213],5.17^[b]
6,CCCCCC#Cc1cccc(CON=C(c2ccccc2)c2nnnn2C)n1 [Example 214],4.67^[b]
7,Cn1nnnc1C(=NOCc1cccc(C#Cc2ccccc2Cl)n1)c1ccccc1 [Example 215],4.36^[b]
8,Cn1nnnc1C(=NOCc1cccc(C#Cc2ccc(-c3ccccc3)cc2)n1)c1ccccc1 [Example 216],5.11^[b]
9,Cn1nnnc1C(=NOCc1cccc(C#Cc2ccc(C(F)(F)F)cc2)n1)c1ccccc1 [Example 217],4.65^[b]
10,Cn1nnnc1C(=NOCc1cccc(C#Cc2cccc(C(F)(F)F)c2)n1)c1ccccc1 [Example 218],4.62^[b]
11,Cn1nnnc1C(=NOCc1cccc(C#Cc2ccccc2C(F)(F)F)n1)c1ccccc1 [Example 219],4.44^[b]
12,Cn1nnnc1C(=NOCc1cccc(C#Cc2ccc(OC(F)(F)F)cc2)n1)c1ccccc1 [Example 220],4.75^[b]
13,COc1cccc(C#Cc2cccc(CON=C(c3ccccc3)c3nnnn3C)n2)c1 [Example 221],4.09^[b]
14,COc1ccccc1C#Cc1cccc(CON=C(c2ccccc2)c2nnnn2C)n1 [Example 222],3.89^[b]
15,Cn1nnnc1C(=NOCc1cccc(C#Cc2ccc(F)cc2)n1)c1ccccc1 [Example 223],4.11^[b]
16,Cn1nnnc1C(=NOCc1cccc(C#Cc2ccc(C#N)cc2)n1)c1ccccc1 [Example 224],3.69^[b]
17,Cn1nnnc1C(=NOCc1cccc(C#Cc2cccc(C#N)c2)n1)c1ccccc1 [Example 225],3.69^[b]
18,CCCCOc1ccc(C#Cc2cccc(CON=C(c3ccccc3)c3nnnn3C)n2)cc1 [Example 226],5.29^[b]
19,CCOc1ccc(C#Cc2cccc(CON=C(c3ccccc3)c3nnnn3C)n2)cc1 [Example 227],4.41^[b]
20,COc1ccc(C#Cc2cccc(CON=C(c3ccccc3)c3nnnn3C)n2)cc1 [Example 228],4.01^[b]
21,CC(C)c1ccc(C#Cc2cccc(CON=C(c3ccccc3)c3nnnn3C)n2)cc1 [Example 229],5.14^[b]
22,CCc1ccc(C#Cc2cccc(CON=C(c3ccccc3)c3nnnn3C)n2)cc1 [Example 230],4.81^[b]
23,Cc1ccc(C#Cc2cccc(CON=C(c3ccccc3)c3nnnn3C)n2)cc1 [Example 231],4.44^[b]

row,SMILES,log p
1,Cn1nnnc1C(=NOCc1cccc(C#Cc2ccc(N3CCCCC3)cc2)n1)c1ccccc1 [Example 232],4.81^[b]
2,Cn1nnnc1C(=NOCc1cccc(C#Cc2cc(F)cc(F)c2)n1)c1ccccc1 [Example 233],4.31^[b]
3,Cn1nnnc1C(=NOCc1cccc(C#Cc2ccc(Oc3ccccc3)cc2)n1)c1ccccc1 [Example 234],5.08^[b]
4,CCCCCCC#Cc1cccc(CON=C(c2ccccc2)c2nnnn2C)n1 [Example 235],5.11^[b]
5,Cn1nnnc1C(=NOCc1cccc(C#CCC2CCCC2)n1)c1ccccc1 [Example 236],4.78^[b]
6,Cn1nnnc1C(=NOCc1cccc(C#CCCC2CCCCC2)n1)c1ccccc1 [Example 237],5.62^[b]
7,Cn1nnnc1C(=NOCc1cccc(C#CCc2ccccc2)n1)c1ccccc1 [Example 238],4.09^[b]
8,Cn1nnnc1C(=NOCc1cccc(C#CCCCC#N)n1)c1ccccc1 [Example 239],2.9^[b]
9,COC(C)(C)C#Cc1cccc(CON=C(c2ccccc2)c2nnnn2C)n1 [Example 240],3.42^[b]
10,CCCOC(C)(C)C#Cc1cccc(CON=C(c2ccccc2)c2nnnn2C)n1 [Example 241],4.31^[b]
11,Cn1nnnc1C(=NOCc1cccc(C#CCN2CCOCC2)n1)c1ccccc1 [Example 242],1.44^[b]
12,CCSCC#Cc1cccc(CON=C(c2ccccc2)c2nnnn2C)n1 [Example 243],3.69^[b]
13,CCCc1ccc(C#Cc2cccc(CON=C(c3ccccc3)c3nnnn3C)n2)cc1 [Example 244],5.23^[b]
14,Cn1nnnc1C(=NOCc1cccc(C#Cc2ccc(C(C)(C)C)cc2)n1)c1ccccc1 [Example 245],5.44^[b]
15,CCCOc1ccc(C#Cc2cccc(CON=C(c3ccccc3)c3nnnn3C)n2)cc1 [Example 246],4.86^[b]
16,Cn1nnnc1C(=NOCc1cccc(C#Cc2ccccc2F)n1)c1ccccc1 [Example 247],4.06^[b]
17,Cn1nnnc1C(=NOCc1cccc(C#Cc2cccc(F)c2)n1)c1ccccc1 [Example 248],4.16^[b]
18,Cn1nnnc1C(=NOCc1cccc(C#Cc2cccc(OC(F)(F)F)c2)n1)c1ccccc1 [Example 249],4.75^[b]
19,Cn1nnnc1C(=NOCc1cccc(C#Cc2ccc(Cl)cc2)n1)c1ccccc1 [Example 250],4.54^[b]
20,CN(C)c1ccc(C#Cc2cccc(CON=C(c3ccccc3)c3nnnn3C)n2)cc1 [Example 251],4.29^[b]
21,Cn1nnnc1C(=NOCc1cccc(C#CCCO)n1)c1ccccc1 [Example 253],2.23^[b]

# Same assay, conditions: reversed phase HPLC column, pH 2.7, log p, method [b]: LC-MS, pH 2.7 with 0.1% formic acid in water and acetonitrile (0.1% formic acid), linear gradient 10% to 95% acetonitrile
row,SMILES,chromatographic logP
1,"Cc1sc(Br)nc1CON=C(c1ccccc1)c1nnnn1C [Example 175, N-[(2-bromo-5-methyl-1,3-thiazol-4-yl)methoxy]-1-(1-methyl-1H-tetrazol-5-yl)-1-phenylmethanimine]",3.37
2,Cc1sc(C#CC2CC2)nc1CON=C(c1ccccc1)c1nnnn1C [Example 181],3.83

# Same assay, conditions: reversed phase HPLC columns, pH 2.3, log p, method [a]: HPLC on reversed phase columns, pH 2.3 with 0.1% phosphoric acid and acetonitrile as eluent
row,SMILES,chromatographic logP
1,"Cn1nnnc1C(=NOCc1cccc(C=NO)n1)c1ccccc1 [Example 177, N-({6-[(hydroxyimino)methyl]pyridin-2-yl}methoxy)-1-(1-methyl-1H-tetrazol-5-yl)-1-phenylmethanimine]",2.16
